Among the data in ChEMBL document CHEMBL6114954, “Design, synthesis and cytotoxic activity of novel lipophilic cationic derivatives of diosgenin and sarsasapogenin” (Bioorg Med Chem Lett, 2025) are Activity and IC50 values, retold here.

The source made the active and inactive calls. The rule behind the calls is not given here.

Assay [1] deals with A549. In words: Induction of mitochondrial membrane potential depolarization in human A549 cells at 2 uM by JC-1 staining based flow cytometry (reference value: 7.4 %). Type of assay: functional.
For assay [2], the system named is A549. In words: Induction of apoptosis in human A549 cells assessed as apoptosis ratio at 1 uM incubated for 24 hrs by Annexin V-FITC/PI staining based flow cytometry (reference value: 4.38 %). Format: functional.
Assay [3] concerns A549. The assay can be described thus: Induction of apoptosis in human A549 cells assessed as increase in Bax level by Western blot analysis. Type of assay: functional, cell-based. The note with it: dose <= 4.0 µM. In general terms: Immunoblotting shows a protein as a band on a membrane.
Assay [4] deals with A549. The assay can be described thus: Induction of intracellular ROS generation in human A549 cells incubated for 48 hrs by DCFH-DA staining based analysis. Type of assay: functional, cell-based. The note with it: dose 1-4 µM.
The next assay has as its system HepG2. In words: Cytotoxicity against human HepG2 cells. Format: functional, cell-based.
For assay [5], the system named is A549. The assay can be described thus: Induction of apoptosis in human A549 cells assessed as apoptosis ratio at 4 uM incubated for 24 hrs by Annexin V-FITC/PI staining based flow cytometry (reference value: 4.38 %). Format: functional. In general terms: A flow cytometer gives signals particle by particle.
The subject of assay [6] is A549. In words: Cytotoxicity against human A549 cells. Format: functional, cell-based.
Assay [7] has as its system A549. The assay can be described thus: Induction of apoptosis in human A549 cells assessed as decrease in pro-caspase 3 level upto 4 microM by Western blot analysis. Type of assay: functional, cell-based.
The subject of assay [8] is A549. The assay can be described thus: Induction of apoptosis in human A549 cells assessed as decrease in Bcl-2 level by Western blot analysis. Type of assay: functional, cell-based. The note with it: dose <= 4.0 µM.
Assay [9] deals with A549. The assay can be described thus: Induction of mitochondrial membrane potential depolarization in human A549 cells at 1 uM by JC-1 staining based flow cytometry (reference value: 7.4 %). Type of assay: functional.
The test system of assay [10] is A549. The assay can be described thus: Induction of cell cycle arrest in human A549 cells assessed as accumulation at G0/G1 phase at 1 to 4 uM incubated for 24 hrs by PI staining based flow cytometry. The note with it: dose 1-4 µM. Format: functional.
The subject of assay [11] is A549. In words: Induction of apoptosis in human A549 cells assessed as apoptosis ratio at 2 uM incubated for 24 hrs by Annexin V-FITC/PI staining based flow cytometry (reference value: 4.38 %). Type of assay: functional.
For the next assay, the system named is MDA-MB-231. In words: Cytotoxicity against human MDA-MB-231 cells. Type of assay: functional, cell-based.
The test system of assay [12] is A549. The assay can be described thus: Induction of mitochondrial membrane potential depolarization in human A549 cells at 4 uM by JC-1 staining based flow cytometry (reference value: 7.4 %). Format: functional.

Usually IC50 stands for the concentration needed to halve the response being measured. Lower therefore signals inhibition by little substance. For `CC1CC[C@@]2(OC1)O[C@H]1C[C@H]3[C@@H]4CC=C5C[C@@H](OC(=O)CCC[P+](c6ccccc6)(c6ccccc6)c6ccccc6)CC[C@]5(C)[C@H]4CC[C@]3(C)[C@H]1[C@@H]2C.[Br-]` (some centres undefined), the Activity with A549 [1] was 40.6%; in the assay on A549 [2] it was 8.51%; in the assay with A549 [3] it was “Dose-dependent-effect”; with A549 [4] it was “Dose-dependent-effect”; in the assay with A549 [5] it was 48.2%; in the assay on A549 [8], “Dose-dependent-effect”. The results for the Activity in the assay with A549 [9], in the assay with A549 [11] and in the assay with A549 [12] were 17.4%, 23.95% and 91.2%, respectively. Besides, the IC50 with HepG2 stood at 3.95 µM; in the assay with A549 [6] it was 0.95 µM; in the assay on MDA-MB-231, 4.16 µM. Besides, the outcome in the assay on A549 [7] and in the assay with A549 [10] was Active.
